Measurements from patent publication US11518742B2 (priority 2020, dated 2022).

Key:
[1] = Competitive equilibration of Pattern A, B and C forms in solvents; format: physicochemical; settings: suspension in 0.5 ml solvent agitated 24 hours; AB = Pattern A 15 mg + Pattern B 30 mg, AC = Pattern A 15 mg + Pattern C 30 mg; 1 IPA, 2 toluene, 3 iPrOAc, 4 MeCN, 5 MEK, 6 2-MeTHF
Procedure: Solvent, 0.5 ml, was charged to crystallisation tubes as detailed in the Table below. Suspensions were agitated at 100 rpm at […] for 24 hours. Suspensions were isolated via isolute cartridge and air dried for 5 minutes and characterised by XRPD and DSC.

[2] = system: Slugs (Arion lusitanicus); experiment: SMI assay, historical data (30-min / 60-min contact periods); format: in vivo; settings: for Total MP (% body weight): treatment time 60-min; for CP1 60-min, amount of mucus produced: Table 6; for CP1 60-min, amount of mucus produced / CP1 30-min, amount of mucus produced / CP2 30-min, amount of mucus produced / Day 1 CP1 60-min, amount of mucus produced / Day 2 CP2 60-min, amount of mucus produced / Total MP: historical data; for Ranking of salts by SIB reactions: comparison of 60-min historical data with SIB protocol data; for CP1 30-min, amount of mucus produced / CP2 30-min, amount of mucus produced: Table 4 (Code 00E04); for Day 1 CP1 60-min, amount of mucus produced / Day 2 CP2 60-min, amount of mucus produced: Table 5; for Day 1 CP1 60-min, amount of mucus produced: 1% in CP1; for Day 2 CP2 60-min, amount of mucus produced: 3.5% in CP2
[3] = Controlled cooling crystallisation: solubility in minimal solvent at 50 °C; format: physicochemical
Procedure: (detailed in the Table below). The solutions were clarified through a 0.45 μm Teflon syringe filter into pre-heated crystallisation tubes and cooled from 50° C. to −10° C. over 60 hours (1° C. Hr-1 cooling rate) and held at −10° C. for 50 hours (no agitation).
Solutions were clarified into crystallisation tubes at 50° C. and were cooled to −10° C. at a rate of 10° C.·hr-1, then equilibrated at −10° C. for 12 hours, then agitated at −10° C. at 400 rpm for 30 minutes which afforded a mobile suspension for all samples except Sample I which remained a solution. Further equilibration with agitation at −10° C. at 400 rpm for 3 hours afforded a thin suspension. All samples were isolated via isolute cartridge and air dried for 5 minutes before characterisation.

COc1ccc2[nH]cc(CCN(C)C)c2c1.O=C(O)c1ccccc1 [AC2]
Summary of solid form characterisation, DSC endotherm [1]: Endotherm at 123 °C + | Summary of solid form characterisation, XRPD [1]: Pattern C

O=C([O-])c1ccccc1.[Na+] [Sodium benzoate]
Total MP (% body weight) ([2]; Concentration 1%): 2.6 % body weight | Total MP (% body weight) ([2]; Concentration 10%): 6.9 % body weight | CP1 60-min, amount of mucus produced ([2]; listed as Sodium benzoate (1%)): 2.6 ± 0.3 | CP1 60-min, amount of mucus produced ([2]; listed as Sodium benzoate (10%)): 6.9 ± 1.2 | Ranking of salts by SIB reactions [2]: least irritating salt

COc1ccc2[nH]cc(CCN(C)C)c2c1.O=C(O)c1ccccc1 [5MeODMT benzoate lot 20/20/150FP2]
Solubility mg · ml^−1 at ° C. ([3]; 2-Chlorotoluene, at 80 °C (suspension at 12.5 mg·ml-1 at 50 °C), cryst. tube K): 12.5 at 80 mg · ml^−1 | Solubility mg · ml^−1 at ° C. ([3]; 4-Methyl-2-pentanone, at 50 °C, cryst. tube H, minimal solvent for clear solution): 25 at 50 mg · ml^−1 | Solubility mg · ml^−1 at ° C. ([3]; Cumene, at 80 °C (suspension at 12.5 mg·ml-1 at 50 °C), cryst. tube I): 12.5 at 80 mg · ml^−1 | Solubility mg · ml^−1 at ° C. ([3]; Ethyl formate, at 50 °C, cryst. tube E, minimal solvent for clear solution): 40 at 50 mg · ml^−1 | Solubility mg · ml^−1 at ° C. ([3]; Iso-Butyl acetate, at 50 °C, cryst. tube D, minimal solvent for clear solution): 12.5 at 50 mg · ml^−1 | Solubility mg · ml^−1 at ° C. ([3]; Iso-Propyl acetate, at 50 °C, cryst. tube C, minimal solvent for clear solution): 16.7 at 50 mg · ml^−1 | Solubility mg · ml^−1 at ° C. ([3]; Methyl acetate, at 50 °C, cryst. tube A, minimal solvent for clear solution): 33.3 at 50 mg · ml^−1 | Solubility mg · ml^−1 at ° C. ([3]; Methyl benzoate, at 50 °C, cryst. tube F, minimal solvent for clear solution): 50 at 50 mg · ml^−1 | Solubility mg · ml^−1 at ° C. ([3]; Methyl propionate, at 50 °C, cryst. tube G, minimal solvent for clear solution): 40 at 50 mg · ml^−1 | Solubility mg · ml^−1 at ° C. ([3]; Toluene, at 80 °C (suspension at 12.5 mg·ml-1 at 50 °C), cryst. tube J): 12.5 at 80 mg · ml^−1 | Solubility mg · ml^−1 at ° C. ([3]; n-Propyl acetate, at 50 °C, cryst. tube B, minimal solvent for clear solution): 20 at 50 mg · ml^−1 | Solubility mg · ml^−1 at ° C. ([3]; α,α,α-Trifluorotoluene, at 80 °C (suspension at 12.5 mg·ml-1 at 50 °C), cryst. tube L): 12.5 at 80 mg · ml^−1

COc1ccc2[nH]cc(CCN(C)C)c2c1.O=C(O)c1ccccc1 [AC1]
Summary of solid form characterisation, DSC endotherm [1]: Endotherm at 124 °C | Summary of solid form characterisation, XRPD [1]: Pattern A

COc1ccc2[nH]cc(CCN(C)C)c2c1.O=C(O)c1ccccc1 [AB6]
Summary of solid form characterisation, DSC endotherm [1]: Endotherm at 124 °C | Summary of solid form characterisation, XRPD [1]: Pattern A

O=C([O-])C(=O)[O-].[Na+].[Na+] [Sodium oxalate]
Total MP (% body weight) ([2]; Concentration 1%): 11.2 % body weight | CP1 30-min, amount of mucus produced [2]: 4.5 ± 1.3 | CP2 30-min, amount of mucus produced [2]: 6.6 ± 1.0 | Day 1 CP1 60-min, amount of mucus produced [2]: 11.2 ± 3.9 | Day 2 CP2 60-min, amount of mucus produced [2]: 16.0 ± 4.0 | Ranking of salts by SIB reactions [2]: most irritating salt

COc1ccc2[nH]cc(CCN(C)C)c2c1.O=C(O)c1ccccc1 [AB1]
Summary of solid form characterisation, DSC endotherm [1]: Endotherm at 124 °C | Summary of solid form characterisation, XRPD [1]: Pattern A

COc1ccc2[nH]cc(CCN(C)C)c2c1.O=C(O)c1ccccc1 [AB5]
Summary of solid form characterisation, DSC endotherm [1]: Endotherm at 124 °C | Summary of solid form characterisation, XRPD [1]: Pattern A

COc1ccc2[nH]cc(CCN(C)C)c2c1.O=C(O)c1ccccc1 [AB4]
Summary of solid form characterisation, DSC endotherm [1]: Endotherm at 124 °C | Summary of solid form characterisation, XRPD [1]: Pattern A

COc1ccc2[nH]cc(CCN(C)C)c2c1.O=C(O)c1ccccc1 [AB2]
Summary of solid form characterisation, DSC endotherm [1]: Endotherm at 122 °C | Summary of solid form characterisation, XRPD [1]: Pattern C

Benzalkonium chloride [PC - 1% BAC]
CP1 30-min, amount of mucus produced [2]: 13.2 ± 4.2 | CP2 30-min, amount of mucus produced [2]: 18.6 ± 9.8 | Total MP ([2]; Table 4, 2 x 30-min contact periods): 31.8 ± 12.6 | Total MP ([2]; Table 5, 2 x 60-min contact periods): 31.6 ± 2.5 | Day 1 CP1 60-min, amount of mucus produced [2]: 21.9 ± 4.8 | Day 2 CP2 60-min, amount of mucus produced [2]: 9.7 ± 3.2 | CP1 60-min, amount of mucus produced [2]: 15.0 ± 1.9

COc1ccc2[nH]cc(CCN(C)C)c2c1.O=C(O)c1ccccc1 [AC4]
Summary of solid form characterisation, DSC endotherm [1]: Endotherm at 124 °C | Summary of solid form characterisation, XRPD [1]: Pattern A

COc1ccc2[nH]cc(CCN(C)C)c2c1.O=C(O)c1ccccc1 [AB3]
Summary of solid form characterisation, XRPD [1]: Pattern A
